System: M1 macrophages and M2 macrophages differentiated from mouse bone marrow cells
Assay: Subtype identification by staining and flow cytometry of M1 and M2 macrophages differentiated from mouse bone marrow cells
Type: cell-based, Balb/c mouse
Details: for subtype more strongly stained: two compounds used in combination, each 1 μM
Outline: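 Balb/c mouse bone marrow cells were differentiated to macrophages with 50 ng/mL M-CSF over two 3–4-day periods, then polarized for 3 days to M1 (interferon-γ plus polyliposaccharide) or M2 (IL-4). Live cells (aqua dye-negative) were analysed by flow cytometry; resolution R = |FM1−FM2|/(WM1+WM2) from histogram peak positions and widths indexed subtype discrimination.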

[1] = R=|FM1−FM2|/(WM1+WM2), compound 1 μM
[2] = fluorescence intensity at peak top of histogram, compound 1 μM, 37° C., 30 minutes
[3] = M1 vs M2 macrophages from mouse bone marrow cells, general formula (10) dyes (Table 8)
[4] = class based on resolution R, general formula (10) dyes (Table 8)
[5] = mouse bone marrow-derived M1 macrophages, channel listed per compound, general formula (10) dyes (Table 8)
[6] = mouse bone marrow-derived M2 macrophages, channel listed per compound, general formula (10) dyes (Table 8)
[7] = M1 vs M2 macrophages from mouse bone marrow cells, general formula (11) dyes (Table 9)
[8] = class based on resolution R, general formula (11) dyes (Table 9)
[9] = mouse bone marrow-derived M1 macrophages, channel listed per compound, general formula (11) dyes (Table 9)
[10] = mouse bone marrow-derived M2 macrophages, channel listed per compound, general formula (11) dyes (Table 9)
[11] = M1 vs M2 macrophages from mouse bone marrow cells, general formula (6) dyes (Table 7)
[12] = class based on resolution R, general formula (6) dyes (Table 7)
[13] = mouse bone marrow-derived M1 macrophages, channel listed per compound, general formula (6) dyes (Table 7)
[14] = mouse bone marrow-derived M2 macrophages, channel listed per compound, general formula (6) dyes (Table 7)

| Compound | Resolution ratio R [1] | Peak position of M1 macrophage [2] | Peak position of M2 macrophage [2] | Evaluation of macrophage subtype identification (rated from resolution R) | further results |
| --- | --- | --- | --- | --- | --- |
| O=C(O)CN1C(=O)/C(=C\C=C\c2ccc3c(c2)C2CCCC2N3c2ccccc2)SC1=S (stereo not shown) [(85)] | 0.179 | 225 | 285 | B (the compound is good in the subtype identification (namely, the resolution R is 0.15 or more and less than 0.5)) | – |
| CCN(CC)c1ccc2cc(-c3nc4ncccc4o3)c(=O)oc2c1 [compound (116)] | – | – | – | – | Resolution ratio R [3]: 0.772; Evaluation of macrophage subtype identification [4]: A (The compound is very good in the subtype identification (namely, the resolution R is 0.5 or more)); Peak position of M1 macrophage [5]: 4.91; Peak position of M2 macrophage [6]: 12.1; subtype more strongly stained: more strongly stain the M2 macrophages than the M1 macrophages |
| CCN(CC)c1ccc2cc(-c3nc4ccccc4n3C)c(=O)oc2c1 [(119)] | – | – | – | – | Resolution ratio R [3]: 0.273; Evaluation of macrophage subtype identification [4]: B (the compound is good in the subtype identification (namely, the resolution R is 0.15 or more and less than 0.5)); Peak position of M1 macrophage [5]: 2.60; Peak position of M2 macrophage [6]: 3.94 |
| Cc1cc(C)n2c1C=C1C=CC(CCC(=O)c3c(F)c(F)c(S(=O)(=O)O)c(F)c3F)=[N+]1[B-]2(F)F [(167)] | – | – | – | – | Resolution ratio R [7]: 0.525; Evaluation of macrophage subtype identification [8]: A (The compound is very good in the subtype identification (namely, the resolution R is 0.5 or more)); Peak position of M1 macrophage [9]: 14.5; Peak position of M2 macrophage [10]: 7.82 |
| COc1ccc(N2c3ccc(/C=C4/SC(=S)N(CC(=O)O)C4=O)cc3C3CCCC32)cc1 (stereo not shown) [(25)] | 0.346 | 27.4 | 18.2 | B (the compound is good in the subtype identification (namely, the resolution R is 0.15 or more and less than 0.5)) | – |
| CCN1C(=O)/C(=c2\s/c(=C/c3ccc4c(c3)CC(C)N4CC)c(=O)n2CC(=O)O)SC1=S (stereo not shown) [(57)] | 0.167 | 4.20 | 3.59 | B (the compound is good in the subtype identification (namely, the resolution R is 0.15 or more and less than 0.5)) | – |
| CCOC(=O)Cn1c(=O)/c(=C\c2ccc3c(c2)C2CCCC2N3Cc2ccccc2)s/c1=C1/SC(=O)N(CC)C1=O (stereo not shown) [(42)] | 0.616 | 4.19 | 1.79 | A (The compound is very good in the subtype identification (namely, the resolution R is 0.5 or more)) | – |
| CSc1cccc(N2c3ccc(/C=C4/SC(=S)N(CC(=O)O)C4=O)cc3C3CCCC32)c1 (stereo not shown) [(50)] | 1.025 | 3.24 | 0.99 | A (The compound is very good in the subtype identification (namely, the resolution R is 0.5 or more)) | – |
| CC1=C(S(=O)(=O)O)C(C)=[N+]2C1=C(C)c1c(C)c(S(=O)(=O)O)c(C)n1[B-]2(F)F [(165)] | – | – | – | – | Resolution ratio R [7]: 0.183; Evaluation of macrophage subtype identification [8]: B (the compound is good in the subtype identification (namely, the resolution R is 0.15 or more and less than 0.5)); Peak position of M1 macrophage [9]: 1.25; Peak position of M2 macrophage [10]: 2.00 |
| COc1ccc2cc(N3c4ccc(/C=C5/SC(=S)N(CCC(=O)O)C5=O)cc4C4CCCC43)ccc2c1 (stereo not shown) [(22)] | 0.389 | 199 | 313 | B (the compound is good in the subtype identification (namely, the resolution R is 0.15 or more and less than 0.5)) | – |
| CCN1c2ccc(/C=C/C=C3/SC(=S)N(CCC(=O)O)C3=O)cc2C2CCCC21 (stereo not shown) [(76)] | 0.283 | 7.77 | 10.5 | B (the compound is good in the subtype identification (namely, the resolution R is 0.15 or more and less than 0.5)) | – |
| CCOC(=O)Cn1c(=O)/c(=C\c2ccc3c(c2)C2CCCC2N3c2ccc(OC)cc2)s/c1=C1/SC(=O)N(CC)C1=O (stereo not shown) [(45)] | 0.822 | 18.2 | 4.84 | A (The compound is very good in the subtype identification (namely, the resolution R is 0.5 or more)) | – |
| COc1ccc(N2c3ccc(/C=c4/s/c(=C5/SC(=S)N(Cc6ccccc6)C5=O)n(CC(=O)O)c4=O)cc3C3CCCC32)cc1 (stereo not shown) [(54)] | 0.531 | 154 | 211 | A (The compound is very good in the subtype identification (namely, the resolution R is 0.5 or more)) | – |
| CCN1C(=C/C=C/c2n(CC)c3cc(Cl)c(Cl)cc3[n+]2CC)N(CC)c2cc(Cl)c(Cl)cc21 [compound (103)] | – | – | – | – | Resolution ratio R [11]: 0.597; Evaluation of macrophage subtype identification [12]: A (The compound is very good in the subtype identification (namely, the resolution R is 0.5 or more)); Peak position of M1 macrophage [13]: 2.97; Peak position of M2 macrophage [14]: 8.23; subtype more strongly stained: the M2 macrophage shows a higher fluorescence intensity in the PE-Cy7 channel than the M1 macrophage |
| CCN1/C(=C\C=C\c2oc3ccccc3[n+]2CC)Oc2ccccc21 [(98)] | – | – | – | – | Resolution ratio R [11]: 0.507; Evaluation of macrophage subtype identification [12]: A (The compound is very good in the subtype identification (namely, the resolution R is 0.5 or more)); Peak position of M1 macrophage [13]: 21.95; Peak position of M2 macrophage [14]: 61.59 |
| CC1=CC(C)=[N+]2C1=C(c1ccccc1)c1c(C)cc(C)n1[B-]2(F)F [(148)] | – | – | – | – | Resolution ratio R [7]: 0.193; Evaluation of macrophage subtype identification [8]: B (the compound is good in the subtype identification (namely, the resolution R is 0.15 or more and less than 0.5)); Peak position of M1 macrophage [9]: 109; Peak position of M2 macrophage [10]: 151 |
| CCN(CC)c1ccc2cc(-c3nc4cc(Cl)ccc4s3)c(=O)oc2c1 [(122)] | – | – | – | – | Resolution ratio R [3]: 0.377; Evaluation of macrophage subtype identification [4]: B (the compound is good in the subtype identification (namely, the resolution R is 0.15 or more and less than 0.5)); Peak position of M1 macrophage [5]: 142; Peak position of M2 macrophage [6]: 211 |

From patent US10041937B2, “Macrophage identification agent, and identification method, sorting method, evaluation method, screening method and kit using the macrophage identifier agent” (CANON KABUSHIKI KAISHA, priority 2013, dated 2018)
